Holding throughout (experiment): relative viability (nuclei count vs DMSO), 5 days (fraction); higher = more cells survive
Compound in the assay “GSK126 + Crizotinib”: CC[C@H](C)N1C=C(C2=C(C=C(C=C21)C3=CN=C(C=C3)N4CCNCC4)C(=O)NCC5=C(C=C(NC5=O)C)C)C [GSK126] + C[C@@H](Oc1cc(-c2cnn(C3CCNCC3)c2)cnc1N)c1c(Cl)ccc(F)c1Cl [Crizotinib] (partner 1 µM)
An outline of the steps: (§1)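 Lung cancer cell lines, seeded in 1536-well plates, were treated the following day by pin tool with a single drug or with five library-drug doses (not always all listed) in √10 steps on top of a fixed anchor-drug dose. Cells were fixed and nuclei stained in one step after 5 days, and nuclei were counted. Relative viability is the nuclei count for treated wells divided by that for vehicle wells, reported as medians of duplicate plates.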

Compound in the assay “MLN4924 + Luminespib”: NS(=O)(=O)OC[C@@H]1C[C@@H](n2ccc3c(N[C@H]4CCc5ccccc54)ncnc32)C[C@@H]1O [MLN4924] + CCNC(=O)c1noc(-c2cc(C(C)C)c(O)cc2O)c1-c1ccc(CN2CCOCC2)cc1 [Luminespib] (partner 0.01 µM)
An outline of the steps: as §1

Compound in the assay “MLN4924 + Crizotinib”: NS(=O)(=O)OC[C@@H]1C[C@@H](n2ccc3c(N[C@H]4CCc5ccccc54)ncnc32)C[C@@H]1O [MLN4924] + C[C@@H](Oc1cc(-c2cnn(C3CCNCC3)c2)cnc1N)c1c(Cl)ccc(F)c1Cl [Crizotinib] (partner 1 µM)
Put shortly:
as §1

Compound in the assay “MLN4924 + Pemetrexed”: NS(=O)(=O)OC[C@@H]1C[C@@H](n2ccc3c(N[C@H]4CCc5ccccc54)ncnc32)C[C@@H]1O [MLN4924] + Nc1nc2[nH]cc(CCc3ccc(C(=O)N[C@@H](CCC(=O)O)C(=O)O)cc3)c2c(=O)[nH]1 [Pemetrexed] (partner 0.2 µM)
Put shortly: as §1

Among the data in the supplement of paper PMC10307832 are relative viability values, retold here.

With ChaGo-K-1, the relative viability with GSK126 + Crizotinib (first compound 0.08 µM) worked out at 0.998; with GSK126 + Crizotinib (first compound 0.253 µM) it was 1.09; in the assay with GSK126 + Crizotinib (first compound 0.8 µM), 0.976; in the assay with GSK126 + Crizotinib (first compound 2.53 µM), 1.14; in the assay with GSK126 + Crizotinib (first compound 8 µM), 1.12; with MLN4924 + Luminespib (first compound 0.04 µM), 0.469. Besides, the relative viability in the assay with MLN4924 + Luminespib (first compound 0.1265 µM) is 0.399; with MLN4924 + Luminespib (first compound 0.4 µM), 0.258; in the assay with MLN4924 + Luminespib (first compound 1.265 µM), 0.256; with MLN4924 + Luminespib (first compound 4 µM) it was 0.177; in the assay with MLN4924 + Crizotinib (first compound 0.04 µM) it was 0.908; with MLN4924 + Crizotinib (first compound 0.1265 µM), 0.595. Also, the relative viability with MLN4924 + Crizotinib (first compound 0.4 µM) came out at 0.451; in the assay with MLN4924 + Crizotinib (first compound 1.265 µM), 0.325; with MLN4924 + Crizotinib (first compound 4 µM), 0.324; in the assay with MLN4924 + Pemetrexed (first compound 0.04 µM), 0.272; in the assay with MLN4924 + Pemetrexed (first compound 0.1265 µM), 0.258; in the assay with MLN4924 + Pemetrexed (first compound 0.4 µM), 0.251. Also, the relative viability stood at 0.179 with MLN4924 + Pemetrexed (first compound 1.265 µM) and 0.181 in the assay with MLN4924 + Pemetrexed (first compound 4 µM).

Regarding EBC-1, the relative viability with GSK126 + Crizotinib (first compound 0.08 µM) was determined as 0.204; with GSK126 + Crizotinib (first compound 0.253 µM), 0.203; with GSK126 + Crizotinib (first compound 0.8 µM), 0.182; with GSK126 + Crizotinib (first compound 2.53 µM), 0.193; with GSK126 + Crizotinib (first compound 8 µM) it was 0.173; with MLN4924 + Crizotinib (first compound 0.04 µM), 0.167. Besides, the relative viability is 0.189 with MLN4924 + Crizotinib (first compound 0.1265 µM), 0.215 with MLN4924 + Crizotinib (first compound 0.4 µM), 0.149 in the assay with MLN4924 + Crizotinib (first compound 1.265 µM) and 0.156 with MLN4924 + Crizotinib (first compound 4 µM).

On to EKVX, for which the relative viability with GSK126 + Crizotinib (first compound 0.08 µM) is 0.899; with GSK126 + Crizotinib (first compound 0.253 µM) it was 0.921; with GSK126 + Crizotinib (first compound 0.8 µM) it was 0.895; in the assay with GSK126 + Crizotinib (first compound 2.53 µM), 0.978; in the assay with GSK126 + Crizotinib (first compound 8 µM), 1.09; with MLN4924 + Luminespib (first compound 0.04 µM), 0.943. Moreover, the relative viability with MLN4924 + Luminespib (first compound 0.1265 µM) came out at 0.756; in the assay with MLN4924 + Luminespib (first compound 0.4 µM), 0.682; with MLN4924 + Luminespib (first compound 1.265 µM) it was 0.257; in the assay with MLN4924 + Luminespib (first compound 4 µM) it was 0.166; in the assay with MLN4924 + Crizotinib (first compound 0.04 µM) it was 0.865; with MLN4924 + Crizotinib (first compound 0.1265 µM), 0.654. The relative viability in the assay with MLN4924 + Crizotinib (first compound 0.4 µM) worked out at 0.461; with MLN4924 + Crizotinib (first compound 1.265 µM), 0.226; in the assay with MLN4924 + Crizotinib (first compound 4 µM) it was 0.133; with MLN4924 + Pemetrexed (first compound 0.04 µM) it was 0.45; with MLN4924 + Pemetrexed (first compound 0.1265 µM), 0.411; in the assay with MLN4924 + Pemetrexed (first compound 0.4 µM), 0.316. Also, the results for the relative viability with MLN4924 + Pemetrexed (first compound 1.265 µM) and with MLN4924 + Pemetrexed (first compound 4 µM) were 0.23 and 0.174, respectively.

In the case of EMC-BAC-2, the relative viability worked out at 0.772 in the assay with GSK126 + Crizotinib (first compound 0.08 µM); 0.765 with GSK126 + Crizotinib (first compound 0.253 µM); 0.718 in the assay with GSK126 + Crizotinib (first compound 0.8 µM); 0.723 with GSK126 + Crizotinib (first compound 2.53 µM); 0.701 in the assay with GSK126 + Crizotinib (first compound 8 µM); 0.906 in the assay with MLN4924 + Luminespib (first compound 0.04 µM). The relative viability turned out to be 0.495 in the assay with MLN4924 + Luminespib (first compound 0.1265 µM); 0.303 in the assay with MLN4924 + Luminespib (first compound 0.4 µM); 0.276 in the assay with MLN4924 + Luminespib (first compound 1.265 µM); 0.325 in the assay with MLN4924 + Luminespib (first compound 4 µM); 0.601 in the assay with MLN4924 + Crizotinib (first compound 0.04 µM); 0.283 in the assay with MLN4924 + Crizotinib (first compound 0.1265 µM). The relative viability was found to be 0.242 with MLN4924 + Crizotinib (first compound 0.4 µM); 0.164 with MLN4924 + Crizotinib (first compound 1.265 µM); 0.167 with MLN4924 + Crizotinib (first compound 4 µM); 0.491 with MLN4924 + Pemetrexed (first compound 0.04 µM); 0.537 in the assay with MLN4924 + Pemetrexed (first compound 0.1265 µM); 0.42 with MLN4924 + Pemetrexed (first compound 0.4 µM). Besides, the figures for the relative viability in the assay with MLN4924 + Pemetrexed (first compound 1.265 µM) and in the assay with MLN4924 + Pemetrexed (first compound 4 µM) were 0.255 and 0.277, respectively.

On to EPLC-272H, for which the relative viability in the assay with GSK126 + Crizotinib (first compound 0.08 µM) was found to be 1.07; with GSK126 + Crizotinib (first compound 0.253 µM), 0.843; in the assay with GSK126 + Crizotinib (first compound 0.8 µM), 0.909; in the assay with GSK126 + Crizotinib (first compound 2.53 µM), 0.719; with GSK126 + Crizotinib (first compound 8 µM) it was 0.789; with MLN4924 + Luminespib (first compound 0.04 µM), 0.328. Besides, the relative viability with MLN4924 + Luminespib (first compound 0.1265 µM) stood at 0.152; with MLN4924 + Luminespib (first compound 0.4 µM), 0.219; in the assay with MLN4924 + Luminespib (first compound 1.265 µM), 0.164; in the assay with MLN4924 + Luminespib (first compound 4 µM), 0.143; in the assay with MLN4924 + Crizotinib (first compound 0.04 µM), 0.812; with MLN4924 + Crizotinib (first compound 0.1265 µM) it was 0.603. Besides, the relative viability with MLN4924 + Crizotinib (first compound 0.4 µM) was 0.0795; with MLN4924 + Crizotinib (first compound 1.265 µM), 0.136; with MLN4924 + Crizotinib (first compound 4 µM) it was 0.201; in the assay with MLN4924 + Pemetrexed (first compound 0.04 µM), 0.242; with MLN4924 + Pemetrexed (first compound 0.1265 µM), 0.195; in the assay with MLN4924 + Pemetrexed (first compound 0.4 µM), 0.0979. The figures for the relative viability in the assay with MLN4924 + Pemetrexed (first compound 1.265 µM) and with MLN4924 + Pemetrexed (first compound 4 µM) were 0.128 and 0.155, respectively.

Turning to H3255, the relative viability was found to be 1.02 with GSK126 + Crizotinib (first compound 0.08 µM); 0.814 in the assay with GSK126 + Crizotinib (first compound 0.253 µM); 0.819 with GSK126 + Crizotinib (first compound 0.8 µM); 0.866 with GSK126 + Crizotinib (first compound 2.53 µM); 0.794 in the assay with GSK126 + Crizotinib (first compound 8 µM); 0.843 with MLN4924 + Luminespib (first compound 0.04 µM). The relative viability amounted to 0.73 with MLN4924 + Luminespib (first compound 0.1265 µM); 0.541 with MLN4924 + Luminespib (first compound 0.4 µM); 0.288 with MLN4924 + Luminespib (first compound 1.265 µM); 0.292 in the assay with MLN4924 + Luminespib (first compound 4 µM); 0.77 in the assay with MLN4924 + Crizotinib (first compound 0.04 µM); 0.668 in the assay with MLN4924 + Crizotinib (first compound 0.1265 µM). For the same cell line, the relative viability with MLN4924 + Crizotinib (first compound 0.4 µM) was found to be 0.341; with MLN4924 + Crizotinib (first compound 1.265 µM), 0.242; with MLN4924 + Crizotinib (first compound 4 µM) it was 0.247; with MLN4924 + Pemetrexed (first compound 0.04 µM), 0.603; with MLN4924 + Pemetrexed (first compound 0.1265 µM), 0.577; with MLN4924 + Pemetrexed (first compound 0.4 µM), 0.396. In addition, the relative viability in the assay with MLN4924 + Pemetrexed (first compound 1.265 µM) worked out at 0.263; with MLN4924 + Pemetrexed (first compound 4 µM) it was 0.308.

With HARA, the relative viability with GSK126 + Crizotinib (first compound 0.08 µM) is 1.13; with GSK126 + Crizotinib (first compound 0.253 µM), 0.986; with GSK126 + Crizotinib (first compound 0.8 µM), 1.01; with GSK126 + Crizotinib (first compound 2.53 µM), 1.12; with GSK126 + Crizotinib (first compound 8 µM), 0.817; in the assay with MLN4924 + Luminespib (first compound 0.04 µM) it was 0.683. Also, the relative viability with MLN4924 + Luminespib (first compound 0.1265 µM) was 0.618; in the assay with MLN4924 + Luminespib (first compound 0.4 µM), 0.291; in the assay with MLN4924 + Luminespib (first compound 1.265 µM), 0.0565; with MLN4924 + Luminespib (first compound 4 µM), 0.0527; in the assay with MLN4924 + Crizotinib (first compound 0.04 µM) it was 0.752; with MLN4924 + Crizotinib (first compound 0.1265 µM) it was 0.401. Further, the relative viability with MLN4924 + Crizotinib (first compound 0.4 µM) worked out at 0.349; in the assay with MLN4924 + Crizotinib (first compound 1.265 µM), 0.0875; with MLN4924 + Crizotinib (first compound 4 µM) it was 0.0794; in the assay with MLN4924 + Pemetrexed (first compound 0.04 µM), 0.215; with MLN4924 + Pemetrexed (first compound 0.1265 µM) it was 0.164; with MLN4924 + Pemetrexed (first compound 0.4 µM) it was 0.14. Also, the relative viability with MLN4924 + Pemetrexed (first compound 1.265 µM) worked out at 0.0838; in the assay with MLN4924 + Pemetrexed (first compound 4 µM), 0.183.

With HCC-15, the relative viability in the assay with GSK126 + Crizotinib (first compound 0.08 µM) turned out to be 0.882; with GSK126 + Crizotinib (first compound 0.253 µM), 0.873; in the assay with GSK126 + Crizotinib (first compound 0.8 µM), 0.786; with GSK126 + Crizotinib (first compound 2.53 µM) it was 0.748; with GSK126 + Crizotinib (first compound 8 µM) it was 0.709; with MLN4924 + Luminespib (first compound 0.04 µM), 0.168. In addition, the relative viability with MLN4924 + Luminespib (first compound 0.1265 µM) amounted to 0.171; with MLN4924 + Luminespib (first compound 0.4 µM), 0.161; with MLN4924 + Luminespib (first compound 1.265 µM) it was 0.125; with MLN4924 + Luminespib (first compound 4 µM) it was 0.0876; with MLN4924 + Crizotinib (first compound 0.04 µM), 0.505; with MLN4924 + Crizotinib (first compound 0.1265 µM) it was 0.2. The relative viability amounted to 0.227 with MLN4924 + Crizotinib (first compound 0.4 µM); 0.0834 with MLN4924 + Crizotinib (first compound 1.265 µM); 0.0819 in the assay with MLN4924 + Crizotinib (first compound 4 µM); 0.205 in the assay with MLN4924 + Pemetrexed (first compound 0.04 µM); 0.158 with MLN4924 + Pemetrexed (first compound 0.1265 µM); 0.0806 with MLN4924 + Pemetrexed (first compound 0.4 µM). The relative viability with MLN4924 + Pemetrexed (first compound 1.265 µM) turned out to be 0.0787; with MLN4924 + Pemetrexed (first compound 4 µM), 0.0939.
